Assay results: ChEMBL document CHEMBL5724914, “Linking interpersonal differences in gut microbiota composition and drug biotransformation activity” (2024)

Assay: (§1) The drug is tested on Z-021 corresponding to metagenome with ENA study accession number: PRJEB37062 and ENA sample accession number: ERS12561820 for biotransformation under anaerobic condition. The drug concentrations were measured over 9 timepoints collected between 0 and 24 hours of incubation by liquid-chromatography-coupled mass spectrometry (LC–MS)
Details: 2 µM
Note: call rule not given here.

SMILES	Bacterial Biotransformation
CC(C)c1c(C(=O)Nc2ccccc2)c(-c2ccccc2)c(-c2ccc(F)cc2)n1CC[C@@H](O)C[C@@H](O)CC(=O)O [ATORVASTATIN]	Compound NOT metabolized
COc1ccccc1OCC(O)CN1CCN(CC(=O)Nc2c(C)cccc2C)CC1 (stereo not given) [RANOLAZINE]	Compound metabolized
Nc1ccc(/N=N/c2ccccc2)c(N)n1 [PHENAZOPYRIDINE]	Compound metabolized
CNCCC(Oc1ccc(C(F)(F)F)cc1)c1ccccc1 (stereo not given) [FLUOXETINE]	Compound NOT metabolized
CCc1nc(N)nc(N)c1-c1ccc(Cl)cc1 [PYRIMETHAMINE]	Compound NOT metabolized

Assay: as §1, with “Z-008” for “Z-021”, “ERS12561808” for “ERS12561820”
Details: 2 µM

SMILES	Bacterial Biotransformation
CC(C)c1c(C(=O)Nc2ccccc2)c(-c2ccccc2)c(-c2ccc(F)cc2)n1CC[C@@H](O)C[C@@H](O)CC(=O)O [ATORVASTATIN]	Compound NOT metabolized
COc1ccccc1OCC(O)CN1CCN(CC(=O)Nc2c(C)cccc2C)CC1 (stereo not given) [RANOLAZINE]	Compound NOT metabolized
Nc1ccc(/N=N/c2ccccc2)c(N)n1 [PHENAZOPYRIDINE]	Compound metabolized
CNCCC(Oc1ccc(C(F)(F)F)cc1)c1ccccc1 (stereo not given) [FLUOXETINE]	Compound NOT metabolized
CCc1nc(N)nc(N)c1-c1ccc(Cl)cc1 [PYRIMETHAMINE]	Compound NOT metabolized

Assay: (§2) The drug is tested on Z-003 corresponding to pig gut metagenome with ENA study accession number: PRJEB37062 and ENA sample accession number: ERS12561803 for biotransformation under anaerobic condition. The drug concentrations were measured over 9 timepoints collected between 0 and 24 hours of incubation by liquid-chromatography-coupled mass spectrometry (LC–MS)
Details: 2 µM

SMILES	Bacterial Biotransformation
CC(C)c1c(C(=O)Nc2ccccc2)c(-c2ccccc2)c(-c2ccc(F)cc2)n1CC[C@@H](O)C[C@@H](O)CC(=O)O [ATORVASTATIN]	Compound metabolized
COc1ccccc1OCC(O)CN1CCN(CC(=O)Nc2c(C)cccc2C)CC1 (stereo not given) [RANOLAZINE]	Compound metabolized
Nc1ccc(/N=N/c2ccccc2)c(N)n1 [PHENAZOPYRIDINE]	Compound metabolized
CNCCC(Oc1ccc(C(F)(F)F)cc1)c1ccccc1 (stereo not given) [FLUOXETINE]	Compound NOT metabolized
CCc1nc(N)nc(N)c1-c1ccc(Cl)cc1 [PYRIMETHAMINE]	Compound NOT metabolized

Assay: as §2, with “WLS-370” for “Z-003”, “human” for “pig”, “ERS12561793” for “ERS12561803”
Details: 2 µM

SMILES	Bacterial Biotransformation
CC(C)c1c(C(=O)Nc2ccccc2)c(-c2ccccc2)c(-c2ccc(F)cc2)n1CC[C@@H](O)C[C@@H](O)CC(=O)O [ATORVASTATIN]	Compound metabolized
COc1ccccc1OCC(O)CN1CCN(CC(=O)Nc2c(C)cccc2C)CC1 (stereo not given) [RANOLAZINE]	Compound NOT metabolized
Nc1ccc(/N=N/c2ccccc2)c(N)n1 [PHENAZOPYRIDINE]	Compound metabolized
CNCCC(Oc1ccc(C(F)(F)F)cc1)c1ccccc1 (stereo not given) [FLUOXETINE]	Compound metabolized
CCc1nc(N)nc(N)c1-c1ccc(Cl)cc1 [PYRIMETHAMINE]	Compound NOT metabolized

Assay: as §2, with “WLS-090” for “Z-003”, “human” for “pig”, “ERS12561753” for “ERS12561803”
Details: 2 µM

SMILES	Bacterial Biotransformation
CC(C)c1c(C(=O)Nc2ccccc2)c(-c2ccccc2)c(-c2ccc(F)cc2)n1CC[C@@H](O)C[C@@H](O)CC(=O)O [ATORVASTATIN]	Compound metabolized
COc1ccccc1OCC(O)CN1CCN(CC(=O)Nc2c(C)cccc2C)CC1 (stereo not given) [RANOLAZINE]	Compound NOT metabolized
Nc1ccc(/N=N/c2ccccc2)c(N)n1 [PHENAZOPYRIDINE]	Compound metabolized
CNCCC(Oc1ccc(C(F)(F)F)cc1)c1ccccc1 (stereo not given) [FLUOXETINE]	Compound NOT metabolized
CCc1nc(N)nc(N)c1-c1ccc(Cl)cc1 [PYRIMETHAMINE]	Compound metabolized

Assay: as §2, with “WLS-077” for “Z-003”, “human” for “pig”, “ERS12561750” for “ERS12561803”
Details: 2 µM

SMILES	Bacterial Biotransformation
CC(C)c1c(C(=O)Nc2ccccc2)c(-c2ccccc2)c(-c2ccc(F)cc2)n1CC[C@@H](O)C[C@@H](O)CC(=O)O [ATORVASTATIN]	Compound metabolized
COc1ccccc1OCC(O)CN1CCN(CC(=O)Nc2c(C)cccc2C)CC1 (stereo not given) [RANOLAZINE]	Compound NOT metabolized
Nc1ccc(/N=N/c2ccccc2)c(N)n1 [PHENAZOPYRIDINE]	Compound metabolized
CNCCC(Oc1ccc(C(F)(F)F)cc1)c1ccccc1 (stereo not given) [FLUOXETINE]	Compound NOT metabolized
CCc1nc(N)nc(N)c1-c1ccc(Cl)cc1 [PYRIMETHAMINE]	Compound NOT metabolized

Assay: as §2, with “WLS-073” for “Z-003”, “human” for “pig”, “ERS12561749” for “ERS12561803”
Details: 2 µM

SMILES	Bacterial Biotransformation
CC(C)c1c(C(=O)Nc2ccccc2)c(-c2ccccc2)c(-c2ccc(F)cc2)n1CC[C@@H](O)C[C@@H](O)CC(=O)O [ATORVASTATIN]	Compound NOT metabolized
COc1ccccc1OCC(O)CN1CCN(CC(=O)Nc2c(C)cccc2C)CC1 (stereo not given) [RANOLAZINE]	Compound NOT metabolized
Nc1ccc(/N=N/c2ccccc2)c(N)n1 [PHENAZOPYRIDINE]	Compound metabolized
CNCCC(Oc1ccc(C(F)(F)F)cc1)c1ccccc1 (stereo not given) [FLUOXETINE]	Compound NOT metabolized
CCc1nc(N)nc(N)c1-c1ccc(Cl)cc1 [PYRIMETHAMINE]	Compound NOT metabolized

Details: human gut metagenome, 24 h, 2 µM

SMILES	Bacterial Biotransformation
CC(C)c1c(C(=O)Nc2ccccc2)c(-c2ccccc2)c(-c2ccc(F)cc2)n1CC[C@@H](O)C[C@@H](O)CC(=O)O [ATORVASTATIN]	Compound metabolized
COc1ccccc1OCC(O)CN1CCN(CC(=O)Nc2c(C)cccc2C)CC1 (stereo not given) [RANOLAZINE]	Compound NOT metabolized
Nc1ccc(/N=N/c2ccccc2)c(N)n1 [PHENAZOPYRIDINE]	Compound metabolized
CNCCC(Oc1ccc(C(F)(F)F)cc1)c1ccccc1 (stereo not given) [FLUOXETINE]	Compound NOT metabolized
CCc1nc(N)nc(N)c1-c1ccc(Cl)cc1 [PYRIMETHAMINE]	Compound NOT metabolized

Details: human gut metagenome, 24 h, 2 µM
Remark: another data set of the same source

SMILES	Bacterial Biotransformation
CC(C)c1c(C(=O)Nc2ccccc2)c(-c2ccccc2)c(-c2ccc(F)cc2)n1CC[C@@H](O)C[C@@H](O)CC(=O)O [ATORVASTATIN]	Compound NOT metabolized
COc1ccccc1OCC(O)CN1CCN(CC(=O)Nc2c(C)cccc2C)CC1 (stereo not given) [RANOLAZINE]	Compound NOT metabolized
Nc1ccc(/N=N/c2ccccc2)c(N)n1 [PHENAZOPYRIDINE]	Compound metabolized
CNCCC(Oc1ccc(C(F)(F)F)cc1)c1ccccc1 (stereo not given) [FLUOXETINE]	Compound NOT metabolized
CCc1nc(N)nc(N)c1-c1ccc(Cl)cc1 [PYRIMETHAMINE]	Compound NOT metabolized
